Assay results published in article PMC6751662, “Pharmacological and functional similarities of the human neuropeptide Y system in C. elegans challenges phylogenetic views on the FLP/NPR system” (Cell Communication and Signaling : CCS, 2019).

How the values were obtained:
Format in all cases: cell-based
[1] = target: T1, QRFPR (Homo sapiens, UniProt Q96P65); test: IP accumulation assay, endogenous Gαq coupling, QRFPR; conditions: transiently transfected HEK293 cells, mean of at least three independent experiments
T1 construct: expressed in transfected cells; host or cells: HEK293, transient
T1 sequence (Q96P65 1-431): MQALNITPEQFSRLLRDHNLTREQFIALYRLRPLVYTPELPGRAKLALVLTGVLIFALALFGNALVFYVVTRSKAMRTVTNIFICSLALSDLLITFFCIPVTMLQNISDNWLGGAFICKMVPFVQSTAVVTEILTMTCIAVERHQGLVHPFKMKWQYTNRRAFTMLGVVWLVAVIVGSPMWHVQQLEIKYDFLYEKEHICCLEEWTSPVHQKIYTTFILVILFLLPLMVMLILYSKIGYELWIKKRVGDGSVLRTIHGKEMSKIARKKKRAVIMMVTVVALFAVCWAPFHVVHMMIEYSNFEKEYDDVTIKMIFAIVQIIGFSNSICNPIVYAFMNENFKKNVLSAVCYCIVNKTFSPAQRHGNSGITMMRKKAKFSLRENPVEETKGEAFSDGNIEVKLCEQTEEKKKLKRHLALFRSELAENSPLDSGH
Experimental: (§1) For measuring IP accumulation, HEK293 cells grown to 70–80% confluency in 6-well plates were transiently co-transfected using Metafectene Pro (2.5 μl/μg DNA; Biontex) with plasmids containing receptor and/or mock (empty pcDNA3.1) (for endogenous Gq-coupling) using 4 μg total DNA in a ratio of 3:1 following the manufacturer’s instructions. For testing Gα16- and GαΔ6qi4myr-coupling, plasmids encoding the corresponding Gα protein were co-transfected instead of mock. Gα16 is naturally promiscuous and stimulates the phospholipase C (PLC) pathway leading to IP production, while the exchange of the C-terminal four amino acids of Gαq for the corresponding residues of Gαi1 in the chimeric GαΔ6qi4myr confers the ability to couple to Gi/o protein-preferring receptors but still stimulate PLC, thus specifically redirecting downstream cellular signaling. 16 h post transfection, the cells were seeded into white 384-well plates at a density of 20,000 cells/well. Media was removed 24 h later and the cells were incubated with the indicated concentration of peptides for 1 h in HBSS + 20 mM LiCl. IP accumulation was measured with the HTRF-based IP-One Gq kit (Cisbio) on a microplate reader (Tecan Spark).
(§2) For in vitro activation, data is presented as mean ± SEM of at least three independent experiments conducted in technical triplicate. […] For the C. elegans NPRs, we considered the strongest response elicited by any of the peptides downstream of a particular receptor as the receptor’s maximal signal. This may or may not be the biological maximum that can be reached by the ‘true’ endogenous agonist. For the human receptors, the response to the established endogenous agonist reflected the maximal signal.

[2] = target: T2, NPFF1R (Homo sapiens, UniProt Q9GZQ6); test: IP accumulation assay, chimeric GαΔ6qi4myr, NPFF1R; conditions: chimeric GαΔ6qi4myr co-transfected, transiently transfected HEK293 cells, mean of at least three independent experiments
T2 construct: expressed in transfected cells; host or cells: HEK293, transient
T2 sequence (Q9GZQ6 whole entry): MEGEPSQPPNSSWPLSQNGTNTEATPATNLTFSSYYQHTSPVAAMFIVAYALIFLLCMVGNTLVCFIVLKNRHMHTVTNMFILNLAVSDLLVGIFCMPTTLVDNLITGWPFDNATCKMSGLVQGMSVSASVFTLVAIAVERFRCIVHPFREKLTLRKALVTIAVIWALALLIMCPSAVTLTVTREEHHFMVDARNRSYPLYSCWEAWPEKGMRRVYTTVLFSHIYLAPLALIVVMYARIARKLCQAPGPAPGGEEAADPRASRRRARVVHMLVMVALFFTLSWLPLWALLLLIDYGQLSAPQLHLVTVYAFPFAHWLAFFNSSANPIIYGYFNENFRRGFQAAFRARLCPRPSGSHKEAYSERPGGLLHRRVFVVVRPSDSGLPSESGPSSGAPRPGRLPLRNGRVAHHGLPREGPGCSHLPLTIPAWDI
Experimental: as §1, §2

[3] = target: T3, Y1R (Homo sapiens, UniProt P25929); test: IP accumulation assay, chimeric GαΔ6qi4myr, Y1R; conditions: chimeric GαΔ6qi4myr co-transfected, transiently transfected HEK293 cells, mean of at least three independent experiments
T3 construct: expressed in transfected cells; host or cells: HEK293, transient
T3 sequence (P25929 1-384): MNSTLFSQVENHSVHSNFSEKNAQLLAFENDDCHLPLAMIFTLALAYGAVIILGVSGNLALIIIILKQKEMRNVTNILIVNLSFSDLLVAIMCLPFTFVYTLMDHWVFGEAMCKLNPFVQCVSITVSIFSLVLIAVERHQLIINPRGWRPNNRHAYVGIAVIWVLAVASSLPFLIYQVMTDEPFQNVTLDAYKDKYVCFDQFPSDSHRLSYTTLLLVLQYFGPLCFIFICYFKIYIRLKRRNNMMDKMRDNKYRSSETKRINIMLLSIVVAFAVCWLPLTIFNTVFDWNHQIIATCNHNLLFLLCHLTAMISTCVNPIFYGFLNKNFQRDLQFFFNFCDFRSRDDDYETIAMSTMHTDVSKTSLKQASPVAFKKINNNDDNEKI
Experimental: as §1, §2

[4] = target: T4, NPFF2R (Homo sapiens, UniProt Q9Y5X5); test: IP accumulation assay, chimeric GαΔ6qi4myr, NPFF2R; conditions: chimeric GαΔ6qi4myr co-transfected, transiently transfected HEK293 cells, mean of at least three independent experiments
T4 construct: expressed in transfected cells; host or cells: HEK293, transient
T4 sequence (Q9Y5X5 103-522): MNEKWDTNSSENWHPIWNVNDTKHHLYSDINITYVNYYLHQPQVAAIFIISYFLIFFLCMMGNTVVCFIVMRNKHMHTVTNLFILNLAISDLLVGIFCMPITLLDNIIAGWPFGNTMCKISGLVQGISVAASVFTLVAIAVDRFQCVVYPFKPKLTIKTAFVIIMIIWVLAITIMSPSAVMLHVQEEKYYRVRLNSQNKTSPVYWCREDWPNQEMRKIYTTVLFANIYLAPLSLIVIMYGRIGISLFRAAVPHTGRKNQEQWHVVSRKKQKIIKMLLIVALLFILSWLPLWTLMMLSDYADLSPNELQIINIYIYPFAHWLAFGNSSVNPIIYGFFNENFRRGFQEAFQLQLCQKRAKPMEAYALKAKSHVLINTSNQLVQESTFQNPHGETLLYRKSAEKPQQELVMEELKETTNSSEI
Experimental: as §1, §2

[5] = target: T5, Y5R (Homo sapiens, UniProt Q15761); test: IP accumulation assay, chimeric GαΔ6qi4myr, Y5R; conditions: chimeric GαΔ6qi4myr co-transfected, transiently transfected HEK293 cells, mean of at least three independent experiments
T5 construct: expressed in transfected cells; host or cells: HEK293, transient
T5 sequence (Q15761 1-445): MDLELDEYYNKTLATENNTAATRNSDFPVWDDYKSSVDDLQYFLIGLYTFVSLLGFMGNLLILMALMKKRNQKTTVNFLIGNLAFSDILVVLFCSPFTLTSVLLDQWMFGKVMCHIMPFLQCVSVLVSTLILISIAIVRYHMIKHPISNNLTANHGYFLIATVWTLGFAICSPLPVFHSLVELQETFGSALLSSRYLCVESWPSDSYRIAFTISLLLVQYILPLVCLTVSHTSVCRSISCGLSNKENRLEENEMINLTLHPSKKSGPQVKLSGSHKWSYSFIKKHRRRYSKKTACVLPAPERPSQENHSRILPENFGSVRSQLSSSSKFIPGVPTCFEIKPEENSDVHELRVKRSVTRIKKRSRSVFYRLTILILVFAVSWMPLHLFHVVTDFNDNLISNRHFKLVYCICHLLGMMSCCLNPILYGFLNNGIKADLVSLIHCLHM
Experimental: as §1, §2

| Substance | IP accumulation, x-fold of basal (mean), QRFPR# ([1]; 0.1 µM peptide) | IP accumulation, x-fold of basal (mean), QRFPR# ([1]; 10 µM peptide) | IP accumulation, x-fold of basal (mean), NPFF1R ([2]; 0.1 µM peptide) | IP accumulation, x-fold of basal (mean), NPFF1R ([2]; 10 µM peptide) | IP accumulation, x-fold of basal (mean), Y1R ([3]; 0.1 µM peptide) | IP accumulation, x-fold of basal (mean), Y1R ([3]; 10 µM peptide) | IP accumulation, x-fold of basal (mean), NPFF2R ([4]; 0.1 µM peptide) | IP accumulation, x-fold of basal (mean), NPFF2R ([4]; 10 µM peptide) | IP accumulation, x-fold of basal (mean), Y5R ([5]; 0.1 µM peptide) | IP accumulation, x-fold of basal (mean), Y5R ([5]; 10 µM peptide) |
| --- | --- | --- | --- | --- | --- | --- | --- | --- | --- | --- |
| AGSDPNFLRF-NH2 [FLP-1-2, C. elegans FMRFamide-like peptide, C-terminally amidated, synthesized by SPPS] | 1.07 x-fold of basal | 0.92 x-fold of basal | 2.11 x-fold of basal | 3.54 x-fold of basal | 1.25 x-fold of basal | 3.68 x-fold of basal | 1.10 x-fold of basal | 2.86 x-fold of basal | 1.33 x-fold of basal | 1.17 x-fold of basal |
| APKPKFIRF-NH2 [FLP-5-1, C. elegans FMRFamide-like peptide, C-terminally amidated, synthesized by SPPS] | 0.95 x-fold of basal | 1.21 x-fold of basal | 1.48 x-fold of basal | 4.07 x-fold of basal | 1.02 x-fold of basal | 1.69 x-fold of basal | 0.88 x-fold of basal | 2.44 x-fold of basal | 0.80 x-fold of basal | 5.88 x-fold of basal |
| APLEGFEDMSGFLRTIDGIQKPRF-NH2 [FLP-33, NPY-like C. elegans FLP with C-terminal RxRF/Ya signature] | 0.91 x-fold of basal | 0.80 x-fold of basal |  |  |  |  |  |  |  |  |
| APLEPVYPGDNATPEQMAQYAADLRRYINMLTRPRY-NH2 [PP, human pancreatic polypeptide, reference compound] | 0.75 x-fold of basal | 0.75 x-fold of basal | 0.75 x-fold of basal | 0.75 x-fold of basal | 17.01 x-fold of basal | 25.89 x-fold of basal | 0.95 x-fold of basal | 1.44 x-fold of basal | 16.39 x-fold of basal | 17.90 x-fold of basal |
| ASPSFIRF-NH2 [FLP-4-2, C. elegans FMRFamide-like peptide, C-terminally amidated, synthesized by SPPS] | 1.26 x-fold of basal | 0.98 x-fold of basal | 1.86 x-fold of basal | 3.68 x-fold of basal | 2.37 x-fold of basal | 1.93 x-fold of basal | 1.07 x-fold of basal | 2.36 x-fold of basal | 1.14 x-fold of basal | 1.29 x-fold of basal |
| EASAFGDIIGELKGKGLGGRMRF-NH2 [FLP-27, NPY-like C. elegans FLP with C-terminal RxRF/Ya signature] | 0.87 x-fold of basal | 0.95 x-fold of basal |  |  |  |  |  |  |  |  |
| NPENDTPFGTMRF-NH2 [FLP-3-4, C. elegans FMRFamide-like peptide, C-terminally amidated, synthesized by SPPS] | 1.42 x-fold of basal | 1.52 x-fold of basal | 1.29 x-fold of basal | 3.42 x-fold of basal | 1.54 x-fold of basal | 3.82 x-fold of basal | 1.58 x-fold of basal | 3.28 x-fold of basal | 0.67 x-fold of basal | 1.41 x-fold of basal |
| PrRP31 [reference compound] | 0.58 x-fold of basal | 0.59 x-fold of basal | 0.87 x-fold of basal | 2.26 x-fold of basal | 0.87 x-fold of basal | 1.86 x-fold of basal | 1.83 x-fold of basal | 2.28 x-fold of basal | 0.70 x-fold of basal | 9.64 x-fold of basal |
| TPDINPAWYASRGIRPVGRF-NH2 [PrRP20, human prolactin-releasing peptide, 20 residues, reference compound] | 0.59 x-fold of basal | 0.63 x-fold of basal | 0.94 x-fold of basal | 2.37 x-fold of basal | 0.82 x-fold of basal | 2.68 x-fold of basal | 1.75 x-fold of basal | 2.32 x-fold of basal | 1.01 x-fold of basal | 5.90 x-fold of basal |
